Laboratory results reported in ChEMBL document CHEMBL1649156, “Antianaerobic activity of sulopenem compared to six other agents” (2009).

How the values were obtained:
Assay type in all cases: functional
[1] = test system: Prevotella disiens; experiment: Antimicrobial activity in Prevotella disiens by CLSI agar dilution method in presence of Tazobactam
[2] = test system: Prevotella baroniae; experiment: Antimicrobial activity in Prevotella baroniae by CLSI agar dilution method in presence of Tazobactam; settings: Segatella baroniae
[3] = test system: Hoylesella oralis; experiment: Antimicrobial activity in Prevotella oralis group by CLSI agar dilution method in presence of Tazobactam
[4] = test system: Prevotella veroralis; experiment: Antimicrobial activity in Prevotella veroralis by CLSI agar dilution method in presence of Tazobactam
[5] = test system: Prevotella bergensis; experiment: Antimicrobial activity in Prevotella bergensis by CLSI agar dilution method in presence of Tazobactam; settings: Hallella bergensis
[6] = test system: Prevotella salivae; experiment: Antimicrobial activity in Prevotella salivae by CLSI agar dilution method in presence of Tazobactam; settings: Segatella salivae
[7] = test system: Hoylesella loescheii; experiment: Antimicrobial activity in Prevotella loescheii by CLSI agar dilution method in presence of Tazobactam
[8] = test system: Prevotella sp.; experiment: Antimicrobial activity in Prevotella sp.by CLSI agar dilution method in presence of Tazobactam
[9] = test system: Porphyromonas asaccharolytica; experiment: Antimicrobial activity in Porphyromonas asaccharolytica by CLSI agar dilution method in presence of Tazobactam
[10] = test system: Fusobacterium nucleatum; experiment: Antimicrobial activity in Fusobacterium nucleatum by CLSI agar dilution method in presence of Tazobactam
[11] = test system: Fusobacterium necrophorum; experiment: Antimicrobial activity in Fusobacterium necrophorum by CLSI agar dilution method in presence of Tazobactam
[12] = test system: Fusobacterium mortiferum; experiment: Antimicrobial activity in Fusobacterium mortiferum by CLSI agar dilution method in presence of Tazobactam
[13] = test system: Fusobacterium varium; experiment: Antimicrobial activity in Fusobacterium varium by CLSI agar dilution method in presence of Tazobactam
[14] = test system: Finegoldia magna; experiment: Antimicrobial activity in Finegoldia magna by CLSI agar dilution method in presence of Tazobactam
[15] = test system: Parvimonas micra; experiment: Antimicrobial activity in Micromonas micros by CLSI agar dilution method in presence of Tazobactam
[16] = test system: Peptostreptococcus anaerobius; experiment: Antimicrobial activity in Peptostreptococcus anaerobius by CLSI agar dilution method in presence of Tazobactam
[17] = test system: Peptoniphilus asaccharolyticus; experiment: Antimicrobial activity in Peptoniphilus asaccharolyticus by CLSI agar dilution method in presence of Tazobactam
[18] = test system: Anaerococcus tetradius; experiment: Antimicrobial activity in Anaerococcus tetradius by CLSI agar dilution method in presence of Tazobactam
[19] = test system: Anaerococcus prevotii; experiment: Antimicrobial activity in Anaerococcus prevotii by CLSI agar dilution method in presence of Tazobactam
[20] = test system: Lactobacillus; experiment: Antimicrobial activity in Lactobacillus by CLSI agar dilution method in presence of Tazobactam
[21] = test system: Bifidobacterium; experiment: Antimicrobial activity in Bifidobacterium by CLSI agar dilution method in presence of Tazobactam
[22] = test system: Cutibacterium acnes; experiment: Antimicrobial activity in Propionibacterium acnes by CLSI agar dilution method in presence of Tazobactam
[23] = test system: Actinomyces; experiment: Antimicrobial activity in Actinomyces by CLSI agar dilution method in presence of Tazobactam
[24] = test system: Eggerthella lenta; experiment: Antimicrobial activity in Eggerthella lenta by CLSI agar dilution method in presence of Tazobactam
[25] = test system: Clostridium perfringens; experiment: Antimicrobial activity in Clostridium perfringens by CLSI agar dilution method in presence of Tazobactam

`CCN1CCN(C(=O)N[C@@H](C(=O)N[C@@H]2C(=O)N3[C@@H]2SC(C)(C)[C@@H]3C(=O)O)c2ccccc2)C(=O)C1=O` [PIPERACILLIN] was tested, and the MIC [1] was ≤ 0.125 µg/mL, the MIC50 [1] was ≤ 0.125 µg/mL and the MIC [2] was ≤ 0.125 µg/mL. The MIC [3] was ≤ 0.125 µg/mL, the MIC [4] was ≤ 0.125 µg/mL and the MIC [5] was ≤ 0.125 µg/mL. The MIC [6] was ≤ 0.125 µg/mL, the MIC [7] was ≤ 0.125 µg/mL and the MIC [8] was ≤ 0.125 µg/mL. The MIC [9] was ≤ 0.125 µg/mL, the MIC [10] was ≤ 0.125 µg/mL and the MIC50 [10] was ≤ 0.125 µg/mL. The MIC90 [10] was ≤ 0.125 µg/mL, the MIC [11] was ≤ 0.125 µg/mL and the MIC50 [11] was ≤ 0.125 µg/mL. The MIC [12] was 0.25 µg/mL, the MIC50 [12] was 0.25 µg/mL and the MIC90 [12] was 1 µg/mL. The MIC50 [13] was 4 µg/mL, the MIC90 [13] was 8 µg/mL and the MIC [14] was ≤ 0.125 µg/mL. The MIC50 [14] was ≤ 0.125 µg/mL, the MIC90 [14] was 0.25 µg/mL and the MIC [15] was ≤ 0.125 µg/mL. For the same compound, the MIC50 [15] was ≤ 0.125 µg/mL, the MIC90 [15] was ≤ 0.125 µg/mL and the MIC [16] was 0.25 µg/mL. For the same compound, the MIC50 [16] was 0.25 µg/mL, the MIC90 [16] was 16 µg/mL and the MIC [17] was ≤ 0.125 µg/mL. For the same compound, the MIC50 [17] was ≤ 0.125 µg/mL, the MIC [18] was ≤ 0.125 µg/mL and the MIC50 [18] was ≤ 0.125 µg/mL. For the same compound, the MIC90 [18] was 0.25 µg/mL, the MIC [19] was ≤ 0.125 µg/mL and the MIC50 [20] was 2 µg/mL. The MIC90 [20] was 2 µg/mL, the MIC [21] was ≤ 0.125 µg/mL and the MIC50 [21] was ≤ 0.125 µg/mL. For the same compound, the MIC90 [21] was 0.25 µg/mL, the MIC50 [22] was 0.25 µg/mL and the MIC90 [22] was 1 µg/mL. For the same compound, the MIC [23] was 0.5 µg/mL, the MIC50 [23] was 1 µg/mL and the MIC50 [24] was 16 µg/mL. For the same compound, the MIC90 [24] was 16 µg/mL, the MIC [25] was ≤ 0.125 µg/mL and the MIC50 [25] was ≤ 0.125 µg/mL. The MIC90 [25] was 0.5 µg/mL.
